Laboratory results published in article PMC5218480 (PLoS ONE, 2017).

Tested on: MV-4-11 cells
Assay: Gene expression microarray analysis (Affymetrix PrimeView) and GSEA
Assay type: cell-based, human
Parameters: RFU PODN (11730768_x_at) / Fold change /veh PODN (11730768_x_at) / RFU LINC00158 (11744669_a_at) / Fold change /veh LINC00158 (11744669_a_at) / RFU DUSP10 (11751237_a_at) / Fold change /veh DUSP10 (11751237_a_at) / RFU ID3 (11757404_x_at) / Fold change /veh ID3 (11757404_x_at) / RFU PLEKHG5 (11737974_s_at) / Fold change /veh PLEKHG5 (11737974_s_at) / RFU LRRC4B (11730491_at) / Fold change /veh LRRC4B (11730491_at) / RFU GIMAP4 (11747438_a_at) / Fold change /veh GIMAP4 (11747438_a_at) / RFU KRT8 (11758183_x_at) / Fold change /veh KRT8 (11758183_x_at) / RFU CNN1 (11734310_a_at) / Fold change /veh CNN1 (11734310_a_at) / RFU VPS37D (11726825_at) / Fold change /veh VPS37D (11726825_at) / RFU C10orf10 (11716522_x_at) / Fold change /veh C10orf10 (11716522_x_at) / RFU KIR2DL2 /// KIR2DL4 /// KIR2DL5A /// KIR2DL5B /// KIR2DS1 /// KIR2DS2 /// KIR2DS3 /// KIR2DS4 /// KIR3DL3 /// KIR3DL3 /// KIR3DS1 (11738374_at) / Fold change /veh KIR2DL2 /// KIR2DL4 /// KIR2DL5A /// KIR2DL5B /// KIR2DS1 /// KIR2DS2 /// KIR2DS3 /// KIR2DS4 /// KIR3DL3 /// KIR3DL3 /// KIR3DS1 (11738374_at) / RFU C1QL1 (11718748_at) / Fold change /veh C1QL1 (11718748_at) / RFU TMPRSS4 (11747572_a_at) / Fold change /veh TMPRSS4 (11747572_a_at) / RFU HAMP (11756126_x_at) / Fold change /veh HAMP (11756126_x_at) / RFU RNFT2 (11725882_a_at) / Fold change /veh RNFT2 (11725882_a_at) / RFU NR4A2 (11747474_a_at) / Fold change /veh NR4A2 (11747474_a_at) / RFU ABCC12 (11746883_a_at) / Fold change /veh ABCC12 (11746883_a_at) / RFU TMEM136 (11760407_x_at) / Fold change /veh TMEM136 (11760407_x_at) / RFU CLDN22 /// WWC2 (11732394_at) / Fold change /veh CLDN22 /// WWC2 (11732394_at) / RFU HLA-DPB1 (11760878_x_at) / Fold change /veh HLA-DPB1 (11760878_x_at) / RFU SPINT1 (11716480_a_at) / Fold change /veh SPINT1 (11716480_a_at) / RFU GAP43 (11754022_s_at) / Fold change /veh GAP43 (11754022_s_at) / RFU A4GNT (11735810_at) / Fold change /veh A4GNT (11735810_at) / RFU PRB3 (11715151_x_at) / Fold change /veh PRB3 (11715151_x_at) / RFU TUBB4B (11761932_at) / Fold change /veh TUBB4B (11761932_at) / RFU CAPN14 (11732068_a_at) / Fold change /veh CAPN14 (11732068_a_at) / RFU TMCC2 (11721928_a_at) / Fold change /veh TMCC2 (11721928_a_at) / RFU IRGQ (11745062_a_at) / Fold change /veh IRGQ (11745062_a_at) / RFU FAM174B (11720279_a_at) / Fold change /veh FAM174B (11720279_a_at) / RFU TMPRSS4 (11748680_a_at) / Fold change /veh TMPRSS4 (11748680_a_at) / RFU FAM212B (11763350_a_at) / Fold change /veh FAM212B (11763350_a_at) / RFU PLEKHG5 (11743358_a_at) / Fold change /veh PLEKHG5 (11743358_a_at) / RFU ZSCAN30 (11745921_a_at) / Fold change /veh ZSCAN30 (11745921_a_at) / RFU CMKLR1 (11741424_a_at) / Fold change /veh CMKLR1 (11741424_a_at) / RFU LOC101060620 /// MAPK8IP1 (11723275_at) / Fold change /veh LOC101060620 /// MAPK8IP1 (11723275_at) / RFU SPTSSB (11747773_x_at) / Fold change /veh SPTSSB (11747773_x_at) / RFU PRSS12 (11739890_at) / Fold change /veh PRSS12 (11739890_at) / RFU BIN1 (11741810_x_at) / Fold change /veh BIN1 (11741810_x_at) / RFU WNT11 (11732464_a_at) / Fold change /veh WNT11 (11732464_a_at) / RFU C10orf10 (11716521_a_at) / Fold change /veh C10orf10 (11716521_a_at) / RFU C5orf56 (11738089_at) / Fold change /veh C5orf56 (11738089_at) / RFU CYB561 (11721691_x_at) / Fold change /veh CYB561 (11721691_x_at) / RFU ANKRD19P (11752326_a_at) / Fold change /veh ANKRD19P (11752326_a_at) / RFU OR2T12 /// OR2T33 /// OR2T8 (11738714_s_at) / Fold change /veh OR2T12 /// OR2T33 /// OR2T8 (11738714_s_at) / RFU VCAN (11748164_a_at) / Fold change /veh VCAN (11748164_a_at) / RFU JSRP1 (11732532_at) / Fold change /veh JSRP1 (11732532_at) / RFU KRTAP10-11 (11738290_x_at) / Fold change /veh KRTAP10-11 (11738290_x_at) / RFU MYO3A (11730013_a_at) / Fold change /veh MYO3A (11730013_a_at) / RFU EBF3 (11725865_a_at) / Fold change /veh EBF3 (11725865_a_at) / RFU CAMK2N1 (11719241_x_at) / Fold change /veh CAMK2N1 (11719241_x_at) / RFU C5orf56 (11738088_a_at) / Fold change /veh C5orf56 (11738088_a_at) / RFU OLFML3 (11715873_a_at) / Fold change /veh OLFML3 (11715873_a_at) / RFU LOC100653217 /// NTM (11731650_a_at) / Fold change /veh LOC100653217 /// NTM (11731650_a_at) / RFU MAPK11 (11762145_a_at) / Fold change /veh MAPK11 (11762145_a_at) / RFU FIZ1 (11724087_x_at) / Fold change /veh FIZ1 (11724087_x_at) / RFU OASL (11726364_x_at) / Fold change /veh OASL (11726364_x_at) / RFU SOX15 (11748057_x_at) / Fold change /veh SOX15 (11748057_x_at) / RFU CD79A (11719716_a_at) / Fold change /veh CD79A (11719716_a_at) / RFU HIST1H1D (11736915_at) / Fold change /veh HIST1H1D (11736915_at) / RFU CASKIN2 (11723855_a_at) / Fold change /veh CASKIN2 (11723855_a_at) / RFU LOC730098 (11760151_x_at) / Fold change /veh LOC730098 (11760151_x_at) / RFU OR4N2 (11742367_at) / Fold change /veh OR4N2 (11742367_at) / RFU PRRT2 (11749266_a_at) / Fold change /veh PRRT2 (11749266_a_at) / RFU SNX32 (11753110_a_at) / Fold change /veh SNX32 (11753110_a_at) / RFU CDHR5 (11726645_a_at) / Fold change /veh CDHR5 (11726645_a_at) / RFU RCAN1 (11760418_a_at) / Fold change /veh RCAN1 (11760418_a_at) / RFU FAM167A (11723789_a_at) / Fold change /veh FAM167A (11723789_a_at) / RFU FAM26E (11764081_at) / Fold change /veh FAM26E (11764081_at) / RFU ISYNA1 (11749810_s_at) / Fold change /veh ISYNA1 (11749810_s_at) / RFU ACY1 (11761880_at) / Fold change /veh ACY1 (11761880_at) / RFU 11764098_at / Fold change /veh 11764098_at / RFU SAMD14 (11745864_x_at) / Fold change /veh SAMD14 (11745864_x_at) / RFU NPB (11741838_a_at) / Fold change /veh NPB (11741838_a_at) / RFU TMPRSS6 (11731388_a_at) / Fold change /veh TMPRSS6 (11731388_a_at) / RFU KRTAP10-2 (11738614_at) / Fold change /veh KRTAP10-2 (11738614_at) / RFU ARHGAP8 /// PRR5-ARHGAP8 (11727945_x_at) / Fold change /veh ARHGAP8 /// PRR5-ARHGAP8 (11727945_x_at) / RFU KRTAP5-7 /// NADSYN1 (11734609_at) / Fold change /veh KRTAP5-7 /// NADSYN1 (11734609_at) / RFU RASL12 (11751679_a_at) / Fold change /veh RASL12 (11751679_a_at) / RFU CDKN2B (11736163_a_at) / Fold change /veh CDKN2B (11736163_a_at) / RFU PRF1 (11729649_at) / Fold change /veh PRF1 (11729649_at) / RFU, ZNF638 /// ZNF638-IT1 / Fold change vs veh, ZNF638 /// ZNF638-IT1 / RFU, PANK3 / Fold change vs veh, PANK3 / RFU, SH3YL1 / Fold change vs veh, SH3YL1 / RFU, ZEB2 / Fold change vs veh, ZEB2 / RFU, NRIP1 / Fold change vs veh, NRIP1 / RFU, PTTG1IP / Fold change vs veh, PTTG1IP / RFU, CAPN2 / Fold change vs veh, CAPN2 / RFU, MED14 / Fold change vs veh, MED14 / RFU, SNORA58 / Fold change vs veh, SNORA58 / RFU, C1orf63 / Fold change vs veh, C1orf63 / RFU, LRRFIP1 / Fold change vs veh, LRRFIP1 / RFU, NDUFAF7 / Fold change vs veh, NDUFAF7 / RFU, SLC12A2 / Fold change vs veh, SLC12A2 / RFU, IBTK / Fold change vs veh, IBTK / RFU, ESF1 / Fold change vs veh, ESF1 / Fold change vs veh, TMEM50B / RFU, TAOK1 / Fold change vs veh, TAOK1 / RFU, ACBD3 / Fold change vs veh, ACBD3 / RFU, TMA16 / Fold change vs veh, TMA16 / RFU, RWDD3 / Fold change vs veh, RWDD3 / RFU, BCAT1 / Fold change vs veh, BCAT1 / RFU, EDEM3 / Fold change vs veh, EDEM3 / RFU, TMEM33 / Fold change vs veh, TMEM33 / RFU, WDR75 / Fold change vs veh, WDR75 / RFU, AHCTF1 / Fold change vs veh, AHCTF1 / RFU, TFRC / Fold change vs veh, TFRC / RFU, ZDHHC17 / Fold change vs veh, ZDHHC17 / RFU, NOM1 / Fold change vs veh, NOM1 / RFU, ARL8B / Fold change vs veh, ARL8B / RFU, ZBTB11 / Fold change vs veh, ZBTB11 / RFU, TAMM41 / Fold change vs veh, TAMM41 / RFU, KIAA1704 /// LOC100996395 / Fold change vs veh, KIAA1704 /// LOC100996395 / RFU, ING1 / Fold change vs veh, ING1 / RFU, TRMT61B / Fold change vs veh, TRMT61B / RFU, FUBP3 / Fold change vs veh, FUBP3 / RFU, TP53 / Fold change vs veh, TP53 / RFU, TNKS2 / Fold change vs veh, TNKS2 / RFU, ZFP14 / Fold change vs veh, ZFP14 / RFU, ACTR2 / Fold change vs veh, ACTR2 / RFU, PPP3R1 / Fold change vs veh, PPP3R1 / RFU, PIK3R1 / Fold change vs veh, PIK3R1 / RFU, HNRNPA1 / Fold change vs veh, HNRNPA1 / RFU, RNF170 / Fold change vs veh, RNF170 / RFU, ZNF28 / Fold change vs veh, ZNF28 / RFU, RNGTT / Fold change vs veh, RNGTT / RFU, OGT / Fold change vs veh, OGT / RFU, BRD1 / Fold change vs veh, BRD1 / RFU, MARS / Fold change vs veh, MARS / RFU, ZNF655 / Fold change vs veh, ZNF655 / RFU, FAHD1 / Fold change vs veh, FAHD1 / RFU, BDP1 / Fold change vs veh, BDP1 / RFU, LRRCC1 / Fold change vs veh, LRRCC1 / RFU, ARID1A / Fold change vs veh, ARID1A / RFU, ZNF146 / Fold change vs veh, ZNF146 / RFU, ZNF330 / Fold change vs veh, ZNF330 / RFU, GPN3 / Fold change vs veh, GPN3 / RFU, C9orf123 / Fold change vs veh, C9orf123 / RFU, N4BP2L2 / Fold change vs veh, N4BP2L2 / RFU, ARFIP1 / Fold change vs veh, ARFIP1 / RFU, FAM179B / Fold change vs veh, FAM179B / RFU, BCL10 / Fold change vs veh, BCL10 / RFU, UHRF1BP1L / Fold change vs veh, UHRF1BP1L / RFU, BET1 / Fold change vs veh, BET1 / RFU, CNOT2 / Fold change vs veh, CNOT2 / RFU, ZNF268 / Fold change vs veh, ZNF268 / Fold change vs veh, ZNF507 / RFU, DGCR2 / Fold change vs veh, DGCR2 / RFU, WDSUB1 / Fold change vs veh, WDSUB1 / Fold change vs veh, HSP90B1 /// MIR3652 / RFU, ADSS / Fold change vs veh, ADSS / RFU, GK / Fold change vs veh, GK / RFU, ZNF148 / Fold change vs veh, ZNF148 / RFU, TAF9 / Fold change vs veh, TAF9 / RFU, SLC1A5 / Fold change vs veh, SLC1A5 / RFU, SLMO2 / Fold change vs veh, SLMO2 / RFU, ABCC4 / Fold change vs veh, ABCC4 / RFU, LOC101060439 /// RAP1B / Fold change vs veh, LOC101060439 /// RAP1B / RFU, RFX7 / Fold change vs veh, RFX7 / RFU, GTPBP10 / Fold change vs veh, GTPBP10 / RFU, CNEP1R1 / Fold change vs veh, CNEP1R1 / RFU, BIVM-ERCC5 /// ERCC5 / Fold change vs veh, BIVM-ERCC5 /// ERCC5 / RFU, ILF3 / Fold change vs veh, ILF3 / RFU 11762660_at / Fold change /veh 11762660_at / RFU VCAN (11757783_s_at) / Fold change /veh VCAN (11757783_s_at) / RFU DDX43 (11728927_at) / Fold change /veh DDX43 (11728927_at) / RFU KRT8 (11758188_x_at) / Fold change /veh KRT8 (11758188_x_at) / RFU NKD1 (11759106_at) / Fold change /veh NKD1 (11759106_at) / RFU SRD5A1 (11742802_a_at) / Fold change /veh SRD5A1 (11742802_a_at) / RFU TPSAB1 /// TPSB2 (11721975_s_at) / Fold change /veh TPSAB1 /// TPSB2 (11721975_s_at) / RFU GSTM3 (11746129_a_at) / Fold change /veh GSTM3 (11746129_a_at) / RFU IL23R (11737362_x_at) / Fold change /veh IL23R (11737362_x_at) / RFU TMEM51 (11727254_a_at) / Fold change /veh TMEM51 (11727254_a_at) / RFU PIWIL2 (11732686_x_at) / Fold change /veh PIWIL2 (11732686_x_at) / RFU ORM1 (11744905_x_at) / Fold change /veh ORM1 (11744905_x_at) / RFU CCDC152 (11743942_at) / Fold change /veh CCDC152 (11743942_at) / RFU ECM1 (11717891_a_at) / Fold change /veh ECM1 (11717891_a_at) / RFU IL23R (11748794_a_at) / Fold change /veh IL23R (11748794_a_at) / RFU TNFAIP8L3 (11732012_x_at) / Fold change /veh TNFAIP8L3 (11732012_x_at) / RFU MBOAT4 (11741988_at) / Fold change /veh MBOAT4 (11741988_at) / RFU 11764193_at / Fold change /veh 11764193_at / RFU TMEM53 (11763286_at) / Fold change /veh TMEM53 (11763286_at) / RFU MAGEB2 (11727129_at) / Fold change /veh MAGEB2 (11727129_at) / RFU TMEM200A (11744735_a_at) / Fold change /veh TMEM200A (11744735_a_at) / RFU CCDC152 (11751479_a_at) / Fold change /veh CCDC152 (11751479_a_at) / RFU FAM211A (11726209_a_at) / Fold change /veh FAM211A (11726209_a_at) / RFU RGS16 (11746705_a_at) / Fold change /veh RGS16 (11746705_a_at) / RFU VCAN (11755009_s_at) / Fold change /veh VCAN (11755009_s_at) / RFU RHOB (11743442_s_at) / Fold change /veh RHOB (11743442_s_at) / RFU RGS16 (11720943_a_at) / Fold change /veh RGS16 (11720943_a_at) / RFU RGS16 (11720944_at) / Fold change /veh RGS16 (11720944_at) / RFU, VPS4B / Fold change vs veh, VPS4B / RFU, CREB1 / Fold change vs veh, CREB1 / RFU, DNAJC13 / Fold change vs veh, DNAJC13 / RFU, GNAQ / Fold change vs veh, GNAQ / RFU, CDK5R1 / Fold change vs veh, CDK5R1 / RFU, ZRANB3 / Fold change vs veh, ZRANB3 / RFU, CUL4A / Fold change vs veh, CUL4A / RFU, CCNY / Fold change vs veh, CCNY / RFU, UFL1 / Fold change vs veh, UFL1 / RFU, COG3 / Fold change vs veh, COG3 / RFU, DIAPH2 / Fold change vs veh, DIAPH2 / RFU, SKA2 / Fold change vs veh, SKA2 / RFU, AFF3 / Fold change vs veh, AFF3 / RFU, LMF1 / Fold change vs veh, LMF1 / RFU, IPO11 / Fold change vs veh, IPO11 / RFU, DFFB / Fold change vs veh, DFFB / RFU, FOXP1 / Fold change vs veh, FOXP1 / RFU, CARD8 / Fold change vs veh, CARD8 / RFU, STRN3 / Fold change vs veh, STRN3 / RFU, ADK / Fold change vs veh, ADK / RFU, RASSF2 / Fold change vs veh, RASSF2 / RFU, WIPF1 / Fold change vs veh, WIPF1 / RFU, LARP1B / Fold change vs veh, LARP1B / RFU, RASA1 / Fold change vs veh, RASA1 / RFU, RB1 / Fold change vs veh, RB1 / RFU, PPFIA1 / Fold change vs veh, PPFIA1 / RFU, MAT2A / Fold change vs veh, MAT2A / RFU, CCT5 / Fold change vs veh, CCT5 / RFU, WDR92 / Fold change vs veh, WDR92 / RFU, CUX1 / Fold change vs veh, CUX1 / RFU, TTC7A / Fold change vs veh, TTC7A / RFU, TMEM135 / Fold change vs veh, TMEM135 / RFU, DEPTOR / Fold change vs veh, DEPTOR / RFU, CPM / Fold change vs veh, CPM / RFU, DNAJB6 / Fold change vs veh, DNAJB6 / RFU, CACNA2D3 / Fold change vs veh, CACNA2D3 / RFU, DTX4 / Fold change vs veh, DTX4 / RFU, TFCP2 / Fold change vs veh, TFCP2 / RFU, GMCL1 /// GMCL1P1 / Fold change vs veh, GMCL1 /// GMCL1P1 / RFU, AEBP2 / Fold change vs veh, AEBP2 / RFU, SNHG1 /// SNORD22 /// SNORD25 /// SNORD26 /// SNORD27 /// SNORD28 /// SNORD29 /// SNORD31 / Fold change vs veh, SNHG1 /// SNORD22 /// SNORD25 /// SNORD26 /// SNORD27 /// SNORD28 /// SNORD29 /// SNORD31 / Fold change (Aza/veh), C12orf56 (ProbeSet 11735607_a_at) / Fold change (ACY-1035/veh), C12orf56 (ProbeSet 11735607_a_at) / Fold change (Aza/veh), FGFR1OP (ProbeSet 11751329_s_at) / Fold change (ACY-1035/veh), FGFR1OP (ProbeSet 11751329_s_at) / Fold change (Aza/veh), VPS36 (ProbeSet 11739960_a_at) / Fold change (ACY-1035/veh), VPS36 (ProbeSet 11739960_a_at) / RFU SYPL1 (11715823_x_at) / Fold change /veh SYPL1 (11715823_x_at) / RFU IGFBP7 (11715501_s_at) / Fold change /veh IGFBP7 (11715501_s_at) / RFU REEP3 (11722064_at) / Fold change /veh REEP3 (11722064_at) / RFU IGLL1 (11728026_x_at) / Fold change /veh IGLL1 (11728026_x_at): dose or concentration left out as unconfirmed
Conditions: MV-4-11 cells, 48 hours

## Nc1ccc(-c2cccs2)cc1NC(=O)c1ccc2c(c1)cc(C1CC1)n2CCN1CCOCC1 [ACY-1035]
  RFU SPTSSB (11747773_x_at): 31.07 RFU
